Laboratory results reported in doi:10.1101/2020.07.01.182642v1 (biorxiv, 2020).
Each block holds one molecule with its values, some of them ahead of it.

Legend:
Details in all cases: binder
[1] = target: CLK3 (R134-T484) (Homo sapiens, UniProt P49761, A319V)
[2] = target: CSNK1G3 (Homo sapiens, UniProt Q9Y6M4)
[3] = target: RIPK2 (Homo sapiens, UniProt O43353)
[4] = target: DMPK (Homo sapiens, UniProt Q09013)
[5] = target: PAK6 (Homo sapiens, UniProt Q9NQU5)
[6] = target: RPS6KA3 (Homo sapiens, UniProt P51812)
[7] = target: BMPR1A (Homo sapiens, UniProt P36894)
[8] = target: MERTK (Homo sapiens, UniProt Q12866)
[9] = target: ACVR2B (Homo sapiens, UniProt Q13705)
ACVR2B, sequence (Q13705 whole entry): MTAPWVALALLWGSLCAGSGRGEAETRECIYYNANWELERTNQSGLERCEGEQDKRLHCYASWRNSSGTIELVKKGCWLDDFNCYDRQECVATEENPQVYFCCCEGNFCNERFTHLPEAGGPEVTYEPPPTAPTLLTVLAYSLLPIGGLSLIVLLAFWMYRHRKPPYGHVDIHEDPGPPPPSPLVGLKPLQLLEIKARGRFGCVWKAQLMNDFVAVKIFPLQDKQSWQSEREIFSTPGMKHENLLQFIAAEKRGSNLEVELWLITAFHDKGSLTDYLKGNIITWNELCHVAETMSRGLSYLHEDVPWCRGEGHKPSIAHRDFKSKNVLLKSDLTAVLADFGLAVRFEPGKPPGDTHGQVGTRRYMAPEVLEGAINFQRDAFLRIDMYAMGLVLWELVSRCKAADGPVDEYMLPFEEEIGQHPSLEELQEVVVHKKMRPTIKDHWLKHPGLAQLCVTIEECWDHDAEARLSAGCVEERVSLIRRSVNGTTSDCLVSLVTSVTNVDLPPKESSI

[10] = target: PRKD3 (Homo sapiens, UniProt O94806)
[11] = target: PTK6 (Homo sapiens, UniProt Q13882)
[12] = target: CSNK1E (Homo sapiens, UniProt P49674)
[13] = target: STK3 (Homo sapiens, UniProt Q13188)
STK3, sequence (Q13188 whole entry): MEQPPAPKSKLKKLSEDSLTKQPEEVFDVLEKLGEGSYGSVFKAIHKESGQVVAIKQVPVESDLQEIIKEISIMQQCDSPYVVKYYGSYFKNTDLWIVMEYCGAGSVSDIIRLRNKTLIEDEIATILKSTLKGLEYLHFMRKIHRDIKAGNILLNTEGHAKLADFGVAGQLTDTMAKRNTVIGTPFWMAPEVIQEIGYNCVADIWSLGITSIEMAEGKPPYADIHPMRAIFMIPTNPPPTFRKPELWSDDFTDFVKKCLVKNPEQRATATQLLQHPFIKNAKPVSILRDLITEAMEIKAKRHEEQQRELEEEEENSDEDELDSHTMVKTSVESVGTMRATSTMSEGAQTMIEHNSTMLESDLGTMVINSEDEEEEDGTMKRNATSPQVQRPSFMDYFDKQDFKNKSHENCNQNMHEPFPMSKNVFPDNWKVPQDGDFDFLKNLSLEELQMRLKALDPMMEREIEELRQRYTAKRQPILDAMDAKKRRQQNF

[14] = target: GSG2 (Homo sapiens, UniProt Q8TF76)
[15] = target: CAMKK2 (Homo sapiens, UniProt Q96RR4)
[16] = target: CDK6 (Homo sapiens, UniProt Q00534)
[17] = target: IKBKB (Homo sapiens, UniProt O14920)
[18] = target: MYLK2 (Homo sapiens, UniProt Q9H1R3)
[19] = target: CDKL3 (Homo sapiens, UniProt Q8IVW4)
[20] = target: PRKD2 (Homo sapiens, UniProt Q9BZL6)
[21] = target: CDKL2 (Homo sapiens, UniProt Q92772)
[22] = target: TRIB1 (Homo sapiens, UniProt Q96RU8)
[23] = target: STK32A (Homo sapiens, UniProt Q8WU08)
STK32A, sequence (Q8WU08 whole entry): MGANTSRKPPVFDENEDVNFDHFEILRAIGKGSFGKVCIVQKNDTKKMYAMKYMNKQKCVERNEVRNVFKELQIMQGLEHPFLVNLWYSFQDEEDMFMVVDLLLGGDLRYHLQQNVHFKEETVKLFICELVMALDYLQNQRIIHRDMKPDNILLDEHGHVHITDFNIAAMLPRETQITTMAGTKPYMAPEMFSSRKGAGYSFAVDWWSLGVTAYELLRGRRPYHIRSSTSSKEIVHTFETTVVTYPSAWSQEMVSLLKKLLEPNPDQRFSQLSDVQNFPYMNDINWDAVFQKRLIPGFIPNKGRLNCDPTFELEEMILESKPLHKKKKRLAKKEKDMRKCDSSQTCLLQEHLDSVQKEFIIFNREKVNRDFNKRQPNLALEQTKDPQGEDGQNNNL

[24] = target: STK32C (Homo sapiens, UniProt Q86UX6)
[25] = target: MAP4K4 (Homo sapiens, UniProt O95819)
MAP4K4, sequence (O95819 whole entry): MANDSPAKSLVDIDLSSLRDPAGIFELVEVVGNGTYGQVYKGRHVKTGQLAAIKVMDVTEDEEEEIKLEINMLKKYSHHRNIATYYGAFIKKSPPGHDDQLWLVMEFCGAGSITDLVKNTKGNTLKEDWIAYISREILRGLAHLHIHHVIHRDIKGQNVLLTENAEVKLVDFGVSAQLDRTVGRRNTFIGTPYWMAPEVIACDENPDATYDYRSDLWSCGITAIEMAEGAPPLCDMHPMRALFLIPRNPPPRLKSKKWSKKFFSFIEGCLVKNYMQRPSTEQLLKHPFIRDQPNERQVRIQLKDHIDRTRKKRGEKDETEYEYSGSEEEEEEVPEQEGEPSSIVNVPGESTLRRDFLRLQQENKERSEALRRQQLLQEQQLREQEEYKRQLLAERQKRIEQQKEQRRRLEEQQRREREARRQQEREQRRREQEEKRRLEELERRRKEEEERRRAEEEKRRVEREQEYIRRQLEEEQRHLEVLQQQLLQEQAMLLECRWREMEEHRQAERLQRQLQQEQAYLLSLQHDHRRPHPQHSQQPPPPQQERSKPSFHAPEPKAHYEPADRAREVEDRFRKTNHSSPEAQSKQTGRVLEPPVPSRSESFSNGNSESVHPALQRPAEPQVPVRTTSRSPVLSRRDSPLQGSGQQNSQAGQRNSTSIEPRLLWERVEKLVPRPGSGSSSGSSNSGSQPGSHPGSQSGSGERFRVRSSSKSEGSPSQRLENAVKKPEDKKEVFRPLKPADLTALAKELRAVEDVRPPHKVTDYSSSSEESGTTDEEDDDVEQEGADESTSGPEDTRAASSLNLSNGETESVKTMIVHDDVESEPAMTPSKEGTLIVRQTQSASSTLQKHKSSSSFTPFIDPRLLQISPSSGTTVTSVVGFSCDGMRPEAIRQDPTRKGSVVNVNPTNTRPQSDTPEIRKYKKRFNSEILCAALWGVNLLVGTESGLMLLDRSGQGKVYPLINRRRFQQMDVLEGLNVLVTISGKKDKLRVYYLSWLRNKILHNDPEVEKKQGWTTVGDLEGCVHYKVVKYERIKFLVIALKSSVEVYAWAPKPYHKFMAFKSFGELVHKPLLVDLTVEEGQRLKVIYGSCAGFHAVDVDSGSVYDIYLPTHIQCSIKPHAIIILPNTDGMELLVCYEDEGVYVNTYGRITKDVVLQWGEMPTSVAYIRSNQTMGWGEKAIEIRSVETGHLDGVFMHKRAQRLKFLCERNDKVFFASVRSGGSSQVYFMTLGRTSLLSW

[26] = target: GRK5 (Homo sapiens, UniProt P34947)
[27] = target: MAPK7 (Homo sapiens, UniProt Q13164)
[28] = target: MYLK (Homo sapiens, UniProt Q15746)
MYLK, sequence (Q15746 whole entry): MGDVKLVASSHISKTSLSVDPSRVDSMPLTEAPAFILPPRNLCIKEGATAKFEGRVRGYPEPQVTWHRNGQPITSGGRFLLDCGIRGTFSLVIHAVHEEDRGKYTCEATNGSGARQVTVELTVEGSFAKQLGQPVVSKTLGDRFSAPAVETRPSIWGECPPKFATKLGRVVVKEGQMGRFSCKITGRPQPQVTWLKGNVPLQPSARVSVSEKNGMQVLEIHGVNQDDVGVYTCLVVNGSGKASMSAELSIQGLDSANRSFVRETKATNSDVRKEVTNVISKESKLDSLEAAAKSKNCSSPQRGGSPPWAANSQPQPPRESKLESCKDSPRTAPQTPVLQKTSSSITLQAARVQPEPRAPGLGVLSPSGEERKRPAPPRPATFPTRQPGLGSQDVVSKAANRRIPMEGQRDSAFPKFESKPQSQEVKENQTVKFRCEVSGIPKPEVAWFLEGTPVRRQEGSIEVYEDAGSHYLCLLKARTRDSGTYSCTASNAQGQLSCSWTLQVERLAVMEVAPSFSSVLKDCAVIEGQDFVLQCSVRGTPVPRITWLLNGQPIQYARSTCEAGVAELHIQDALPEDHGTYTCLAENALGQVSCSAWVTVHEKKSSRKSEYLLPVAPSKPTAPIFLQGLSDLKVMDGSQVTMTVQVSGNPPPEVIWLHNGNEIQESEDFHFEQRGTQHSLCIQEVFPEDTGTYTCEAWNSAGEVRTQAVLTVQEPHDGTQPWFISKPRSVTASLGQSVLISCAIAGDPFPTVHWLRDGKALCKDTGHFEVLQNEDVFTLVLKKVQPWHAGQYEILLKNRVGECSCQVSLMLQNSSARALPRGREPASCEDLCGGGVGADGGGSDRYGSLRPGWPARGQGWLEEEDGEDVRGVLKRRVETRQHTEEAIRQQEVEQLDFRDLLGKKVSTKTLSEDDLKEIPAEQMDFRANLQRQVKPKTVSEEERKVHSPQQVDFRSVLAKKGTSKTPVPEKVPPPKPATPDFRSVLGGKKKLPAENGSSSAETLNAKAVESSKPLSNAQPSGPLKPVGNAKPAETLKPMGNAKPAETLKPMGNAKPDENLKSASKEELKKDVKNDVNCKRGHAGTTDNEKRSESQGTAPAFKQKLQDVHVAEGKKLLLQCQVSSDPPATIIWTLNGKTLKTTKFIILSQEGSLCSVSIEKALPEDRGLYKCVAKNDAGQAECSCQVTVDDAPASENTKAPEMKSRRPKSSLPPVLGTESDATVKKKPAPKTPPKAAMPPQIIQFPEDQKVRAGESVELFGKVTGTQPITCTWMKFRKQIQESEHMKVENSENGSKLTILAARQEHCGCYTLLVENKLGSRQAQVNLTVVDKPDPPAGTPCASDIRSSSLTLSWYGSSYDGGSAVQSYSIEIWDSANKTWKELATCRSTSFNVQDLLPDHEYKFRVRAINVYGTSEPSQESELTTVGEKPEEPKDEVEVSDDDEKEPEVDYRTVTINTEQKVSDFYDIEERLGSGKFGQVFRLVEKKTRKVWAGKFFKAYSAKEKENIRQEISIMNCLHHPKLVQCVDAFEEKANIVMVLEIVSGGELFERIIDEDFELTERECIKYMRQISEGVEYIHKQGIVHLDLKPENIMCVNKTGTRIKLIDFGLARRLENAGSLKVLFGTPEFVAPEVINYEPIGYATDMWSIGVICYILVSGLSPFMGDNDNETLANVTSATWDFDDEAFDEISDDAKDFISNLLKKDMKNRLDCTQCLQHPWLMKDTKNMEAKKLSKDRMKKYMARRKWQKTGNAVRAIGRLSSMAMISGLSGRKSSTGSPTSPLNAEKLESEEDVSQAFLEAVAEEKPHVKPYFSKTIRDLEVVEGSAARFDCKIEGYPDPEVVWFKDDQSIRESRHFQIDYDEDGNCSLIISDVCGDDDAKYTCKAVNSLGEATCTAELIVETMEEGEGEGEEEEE

[29] = target: ADRBK1 (Homo sapiens, UniProt P25098)
[30] = target: FGFR4 (Homo sapiens, UniProt P22455)
[31] = target: LIMK1 (Homo sapiens, UniProt P53667)

CLK3 (R134-T484), sequence (P49761 134-484 A319V): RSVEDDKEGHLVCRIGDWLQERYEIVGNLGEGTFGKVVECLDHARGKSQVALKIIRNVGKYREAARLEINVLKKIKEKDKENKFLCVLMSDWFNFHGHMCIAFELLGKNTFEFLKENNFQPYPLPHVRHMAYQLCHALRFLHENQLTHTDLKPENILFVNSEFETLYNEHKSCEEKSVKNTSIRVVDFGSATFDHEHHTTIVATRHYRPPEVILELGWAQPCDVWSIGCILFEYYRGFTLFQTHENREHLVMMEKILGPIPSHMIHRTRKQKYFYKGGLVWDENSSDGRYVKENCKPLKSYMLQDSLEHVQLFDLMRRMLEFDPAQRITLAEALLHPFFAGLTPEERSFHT

ΔTm A319V CLK3 [1]: 5.8 °C
ΔTm inhibitor 1 [2]: 0.3 °C
ΔTm inhibitor 1 [3]: 6.0 °C
ΔTm inhibitor 1 [4]: 1.0 °C
ΔTm inhibitor 1 [5]: 1.1 °C
ΔTm inhibitor 1 [6]: 3.4 °C
ΔTm inhibitor 1 [7]: 10.9 °C
ΔTm inhibitor 1 [8]: 1.3 °C
ΔTm inhibitor 1 [9]: 7.4 °C
ΔTm inhibitor 1 [10]: 0.8 °C
ΔTm inhibitor 1 [11]: 0.4 °C
ΔTm inhibitor 1 [12]: 4.4 °C
ΔTm inhibitor 1 [13]: 2.9 °C
ΔTm inhibitor 1 [14]: 6.5 °C
ΔTm inhibitor 1 [15]: 2.5 °C
ΔTm inhibitor 1 [16]: 0.1 °C
Compound: CC(=O)c1cccc(-c2cnc3ccc(NCC4CC4)nn23)c1 [compound 1, K00135]

ΔTm inhibitor 2 [4]: 1.0 °C
ΔTm inhibitor 2 [5]: -0.9 °C
ΔTm inhibitor 2 [17]: 0.1 °C
ΔTm inhibitor 2 [18]: -1.4 °C
ΔTm inhibitor 2 [6]: 0.7 °C
ΔTm inhibitor 2 [8]: 0.0 °C
ΔTm inhibitor 2 [19]: 0.1 °C
ΔTm inhibitor 2 [20]: 0.7 °C
ΔTm inhibitor 2 [21]: -0.5 °C
ΔTm inhibitor 2 [10]: 2.7 °C
ΔTm inhibitor 2 [22]: 0.2 °C
ΔTm inhibitor 2 [23]: -0.2 °C
ΔTm inhibitor 2 [24]: -0.9 °C
ΔTm inhibitor 2 [25]: -0.1 °C
ΔTm inhibitor 2 [26]: 0.8 °C
ΔTm inhibitor 2 [27]: 0.2 °C
ΔTm inhibitor 2 [28]: -0.2 °C
ΔTm inhibitor 2 [15]: 0.4 °C
ΔTm inhibitor 2 [16]: 0.4 °C
ΔTm inhibitor 2 [29]: 0.1 °C
Compound: CCN1/C(=C/C(C)=O)Sc2ccc(OC)cc21 [compound 2, TG003]

ΔTm A319V CLK3 [1]: 0.6 °C
ΔTm inhibitor 4 [2]: 1.2 °C
ΔTm inhibitor 4 [17]: 1.5 °C
ΔTm inhibitor 4 [18]: 0.0 °C
ΔTm inhibitor 4 [30]: 0.2 °C
ΔTm inhibitor 4 [9]: 0.0 °C
ΔTm inhibitor 4 [21]: 0.1 °C
ΔTm inhibitor 4 [22]: 0.1 °C
ΔTm inhibitor 4 [23]: 0.2 °C
ΔTm inhibitor 4 [25]: 0.2 °C
ΔTm inhibitor 4 [13]: 1.6 °C
ΔTm inhibitor 4 [28]: 0.1 °C
ΔTm inhibitor 4 [14]: 4.0 °C
ΔTm inhibitor 4 [31]: 0.5 °C
Compound: Nc1nccc(-c2ccc3noc(-c4ccc(Cl)cc4)c3c2)n1 [compound 4, K00972]
